We go through six molecules from article PMC9508125, “The evolutionary advantage of an aromatic clamp in plant family 3 glycoside exo-hydrolases” (Nature Communications, 2022).

Substitutions are numbered along the chain they refer to.

What all share (experiment): Relative rates of hydrolysis of poly-, oligosaccharides and aryl-glycosides
Type in all cases: biochemical

For one assay, the target named is T1, HvExoI W286Y mutant (Hordeum vulgare, UniProt Q9XEI3, W311Y).
T1 sequence (Q9XEI3 26-630 W311Y): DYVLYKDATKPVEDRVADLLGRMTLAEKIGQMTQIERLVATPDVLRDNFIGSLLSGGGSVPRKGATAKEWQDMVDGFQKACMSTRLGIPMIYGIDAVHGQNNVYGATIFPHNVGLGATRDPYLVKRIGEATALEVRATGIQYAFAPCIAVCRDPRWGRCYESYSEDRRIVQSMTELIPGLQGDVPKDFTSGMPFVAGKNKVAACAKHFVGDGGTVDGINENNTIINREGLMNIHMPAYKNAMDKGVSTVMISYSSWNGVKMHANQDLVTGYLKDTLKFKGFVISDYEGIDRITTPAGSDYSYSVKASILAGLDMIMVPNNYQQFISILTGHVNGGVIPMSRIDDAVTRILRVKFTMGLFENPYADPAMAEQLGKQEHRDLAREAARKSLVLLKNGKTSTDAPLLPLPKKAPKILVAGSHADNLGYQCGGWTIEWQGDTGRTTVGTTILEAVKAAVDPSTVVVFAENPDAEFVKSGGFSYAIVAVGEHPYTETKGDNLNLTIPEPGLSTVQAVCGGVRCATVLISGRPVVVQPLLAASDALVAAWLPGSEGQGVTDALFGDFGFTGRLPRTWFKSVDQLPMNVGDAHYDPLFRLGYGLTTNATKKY
Particulars: substance is the substrate, nd = activity not detected. How it is done: (§1) Dependency of activities of WT and mutant HvExoI on pH (McIlvaine buffers in the pH range of 3.5–8.5 at 30 °C) and temperature (100 mM sodium acetate buffer, pH 5.25, temperature range 0–80 °C, 15 min incubations) were determined using 0.2% (w/v) 4NP-Glc[21],[59]. Relative rates of hydrolysis of β-linked poly-, oligosaccharides, and aryl-glucosides were determined using near-homogenous HvExoI at 50 pmoles. […] Kinetic parameters were calculated from the analyses of Michaelis-Menten plots with Grafit 7.0.3[62] and processed by a proportional weighted fit, using nonlinear regression. The relative rates of hydrolysis, kinetic, and inhibition data were rounded to one or two decimal points (Supplementary Tables 2–4).

In another assay the target is T2, HvExoI W434Y mutant (Hordeum vulgare, UniProt Q9XEI3, W459Y).
T2 sequence (Q9XEI3 26-630 W459Y): T1 sequence (Q9XEI3 26-630 W311Y) with Y286W, W434Y
The note with it: substance is the substrate, nd = activity not detected. How it is done:
as §1

Assay [1] concerns the target T3, HvExoI W286F/W434F mutant (Hordeum vulgare, UniProt Q9XEI3, W311F/W459F).
T3 sequence (Q9XEI3 26-630 W311F/W459F): T1 sequence (Q9XEI3 26-630 W311Y) with Y286F, W434F
The note with it: substance is the substrate, nd = activity not detected. The protocol:
as §1

The target in another assay is WT HvExoI (Hordeum vulgare, UniProt Q9XEI3). Particulars: substance is the substrate, HvExoI at 50 pmoles, nd = activity not detected. The protocol: as §1
Sequence of WT HvExoI (Q9XEI3 entry or part of it): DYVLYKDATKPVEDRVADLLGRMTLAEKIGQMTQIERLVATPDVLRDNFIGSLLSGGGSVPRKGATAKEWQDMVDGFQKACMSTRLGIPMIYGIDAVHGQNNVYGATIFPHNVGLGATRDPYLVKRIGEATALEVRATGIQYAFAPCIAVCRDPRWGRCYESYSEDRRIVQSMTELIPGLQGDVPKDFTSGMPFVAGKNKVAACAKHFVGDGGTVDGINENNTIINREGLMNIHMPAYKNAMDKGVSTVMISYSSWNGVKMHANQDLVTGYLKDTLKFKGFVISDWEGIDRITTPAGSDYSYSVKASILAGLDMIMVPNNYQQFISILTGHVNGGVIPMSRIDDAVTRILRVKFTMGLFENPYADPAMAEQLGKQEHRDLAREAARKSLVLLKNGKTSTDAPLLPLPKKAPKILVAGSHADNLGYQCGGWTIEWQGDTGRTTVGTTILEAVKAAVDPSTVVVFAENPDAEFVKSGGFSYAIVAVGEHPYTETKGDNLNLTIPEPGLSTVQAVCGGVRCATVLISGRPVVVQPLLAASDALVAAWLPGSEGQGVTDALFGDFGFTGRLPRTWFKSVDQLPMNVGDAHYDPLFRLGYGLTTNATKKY
Assay [2] deals with T4, HvExoI W286F/W434A mutant (Hordeum vulgare, UniProt Q9XEI3, W311F/W459A).
T4 sequence (Q9XEI3 26-630 W311F/W459A): T1 sequence (Q9XEI3 26-630 W311Y) with Y286F, W434A
The note with it: substance is the substrate, nd = activity not detected. How it is done:
as §1

For the molecule `OC[C@H]1O[C@@H](O[C@@H]2[C@@H](O)[C@H](O[C@@H]3[C@@H](O)[C@H](O[C@H]4[C@H](O)[C@@H](CO)OC(O)[C@@H]4O)O[C@H](CO)[C@H]3O)O[C@H](CO)[C@H]2O)[C@H](O)[C@@H](O)[C@@H]1O` (some centres unmarked) [Laminaritetraose], the “Activity (relative rate of hydrolysis)” value was 13.8 ± 0.1 μmole/min per mg protein on HvExoI W286Y mutant; 1.3 ± 0.1 μmole/min per mg protein at HvExoI W434Y mutant; 0.4 ± 0.04 μmole/min per mg protein in assay [1]; 12.3 ± 0.5 μmole/min per mg protein on WT HvExoI; 0.2 ± 0.01 μmole/min per mg protein in assay [2].
In the case of `OC[C@H]1O[C@@H](O[C@H]2[C@H](O)[C@@H](CO)OC(O)[C@@H]2O)[C@H](O)[C@@H](O)[C@@H]1O` (some centres unmarked) [Laminaribiose], the “Activity (relative rate of hydrolysis)” value at HvExoI W286Y mutant is given as 13.9 ± 0.1 μmole/min per mg protein; on HvExoI W434Y mutant, 1.1 ± 0.1 μmole/min per mg protein; in assay [1], 0.5 ± 0.1 μmole/min per mg protein; in assay [2], 0.1 ± 0.001 μmole/min per mg protein.
Turning to `OC[C@H]1O[C@@H](O[C@@H]2[C@@H](O)[C@H](O[C@@H]3[C@@H](O)[C@H](O[C@@H]4[C@@H](O)[C@H](O[C@@H]5[C@@H](O)[C@H](O[C@@H]6[C@@H](O)[C@H](O[C@@H]7[C@@H](O)[C@H](O)O[C@H](CO)[C@H]7O)O[C@H](CO)[C@H]6O)O[C@H](CO)[C@H]5O)O[C@H](CO)[C@H]4O)O[C@H](CO)[C@H]3O)O[C@H](CO)[C@H]2O)[C@H](O)[C@@H](O)[C@@H]1O` [Laminariheptaose], the “Activity (relative rate of hydrolysis)” value is on record as 14.5 ± 2.0 μmole/min per mg protein on HvExoI W286Y mutant; 1.3 ± 0.1 μmole/min per mg protein at HvExoI W434Y mutant; 0.5 ± 0.04 μmole/min per mg protein in assay [1]; 11.0 ± 0.8 μmole/min per mg protein on WT HvExoI; 0.1 ± 0.004 μmole/min per mg protein in assay [2].
Take Gentiobiose: the “Activity (relative rate of hydrolysis)” value at HvExoI W286Y mutant came to 7.6 ± 0.8 μmole/min per mg protein; at HvExoI W434Y mutant it was 0.1 ± 0.01 μmole/min per mg protein; in assay [1] it was 0.01 ± 0.001 μmole/min per mg protein; on WT HvExoI it was 4.7 ± 0.4 μmole/min per mg protein; in assay [2], 0.002 ± 0.0002 μmole/min per mg protein.
In the same order, the values of `OC[C@H]1O[C@@H](O[C@H]2[C@H](O)[C@@H](O)[C@H](O[C@H]3[C@H](O)[C@@H](O)[C@H](O[C@H]4[C@H](O)[C@@H](O)[C@H](O[C@H]5[C@H](O)[C@@H](O)C(O)O[C@@H]5CO)O[C@@H]4CO)O[C@@H]3CO)O[C@@H]2CO)[C@H](O)[C@@H](O)[C@@H]1O` (some centres unmarked) [Cellopentaose] are 5.8 ± 0.2 μmole/min per mg protein, 0.1 ± 0.002 μmole/min per mg protein, 0.02 ± 0.001 μmole/min per mg protein, 8.4 ± 0.4 μmole/min per mg protein and 0.01 ± 0.0003 μmole/min per mg protein.
The like results for Cellobiose were, in that order, 3.2 ± 0.1 μmole/min per mg protein, 0.1 ± 0.001 μmole/min per mg protein, 0.01 ± 0.001 μmole/min per mg protein, 4.6 ± 0.2 μmole/min per mg protein and 0.01 ± 0.001 μmole/min per mg protein.
